Experimental data reported in patent publication US7829305B2, “Method for monitoring the presence of biofilmforming microorganisms in paper industry” (Kemira Oyj, priority 2003, dated 2010).

System: biofilms formed in a paper machine
Assay: Inactivation of biofilms pre-grown in situ on sampler pegs; re-growth of new biofilm in the culturing step, safranin staining, visual evaluation
Format: cell-based
Details: for formation of new biofilm during the culturing step after treatment of the biofilm on the pegs: biofilm grown 68 h in clear filtrate silo of neutral fine paper machine at 52° C., treatment 1 to 50 ppm (active substance), stagnant 52° C., 2 h, culturing in R2-broth 250 rpm, 52° C., 17 h, safranin, evaluated visually
From the text: In this experiment one embodiment of the sampler device of the invention is used to illustrate the method of the invention for determining the effect of several anti-biofilm agents in inactivation of biofilms formed in a paper machine.
In this embodiment the sampler device comprises 12 stainless steel pegs fixed from one end on a stainless steel lid. The lid with the pegs is presented in FIG. 1 together with a treatment plate with 12 wells adapted to receive the pegs when the lid is placed on the plate. Suitably the lid was designed to be complementary with the commercially available 12-well polystyrene plates.
Three sampler lids are immersed in the clear filtrate silo of a neutral fine paper machine and allowed to hang immersed in said filtrate at the temperature of 52° C. of the process water, for 68 h. Then the samplers are removed, rinsed once with sterilized tap water, and each lid is placed on a 12-well treatment plate so that the pegs with biofilms formed in situ in the process on the surface thereof are immersed in the treatment solution within the wells, each peg in one well, while being supported at the one end by the lid.
Each well of a treatment plate contains 3.5 ml of sterilized tap water alone (reference samples) or 3.5 ml of sterilized tap water together with an anti-biofilm agent at a concentration of 1 to 50 ppm (active substance). The maximum volume of the wells is used so that almost the whole length of the pegs will be exposed to the anti-biofilm agents (the treatment solution). The tested anti-biofilm agents are BCDMH (Bromo-chloro-5,5-dimethyl hydantoine), a mixture of 5-chloro-2-methyl-4-isothiazolin-3-one and 2-methyl-4-isothiazolin-3-one, THPS (tetrakis(hydroxy-methyl)phosphomiumsulphate, DBNPA (2,2-dibromo-2-cyanoacetamide), glutar-aldehyde, MBT (methylene-bis(thiocyanate)), BNPD (bromo-2-nitropropan-1,3-diol), all of which are commercially available.
The anti-biofilm treatment step is carried out by incubating the plates with the lid thereon stagnant at 52° C. for 2 h. After the treatment step the lids are removed from the plate and rinsed three times with sterilized tap water and then placed on the 12-well culturing plates, which are similar to the treatment plates, but the wells contain 2.5 ml of sterile R2-broth (Difco). The culturing plates (plate+lid with the pegs immersed in the wells) are shaken at 250 rpm, at 52° C., for 17 h.
Finally, the pegs and growth media are removed from the wells, the wells are rinsed once with tap water and the microbes adhered on the walls of the wells are stained with safranin. The amount of biofilm produced by the microbes that survived alive through the treatment step with anti-biofilm agents is evaluated visually.

Compound	formation of new biofilm during the culturing step after treatment of the biofilm on the pegs	lowest concentration of anti-biofilm agent achieving prevention of re-growth of new biofilm in the culturing step (treatment 2 h at 52° C., culturing 17 h at 52° C. in R2-broth, concentration as active substance) [ppm]
O=S(=O)([O-])[O-].OC[P+](CO)(CO)CO.OC[P+](CO)(CO)CO [THPS, tetrakis(hydroxy-methyl)phosphomiumsulphate]	no new biofilm is formed	
CC1(C)C(=O)N(Br)C(=O)N1Cl [BCDMH, Bromo-chloro-5,5-dimethyl hydantoine]	no new biofilm is formed	
O=CCCCC=O [glutaraldehyde]	no new biofilm is formed	
N#CSCSC#N [MBT, methylene-bis(thiocyanate)]	still capable to form new biofilm	
O=[N+]([O-])C(Br)(CO)CO [BNPD, bromo-2-nitropropan-1,3-diol]	still capable to form new biofilm	
N#CC(Br)(Br)C(N)=O [DBNPA, 2,2-dibromo-2-cyanoacetamide]	no new biofilm is formed	5
